In paper PMC7971076 (Bioorganic & medicinal chemistry letters, 2015):

Experiments:
[1] = molecular target: GluN1/GluN2D NMDA receptor (Rattus norvegicus, UniProt P35439+Q62645); format: cell-based; settings: compared to screening hit 1
[2] = test system: diheteromeric NMDA receptors (GluN1 with GluN2A–D); assay: Two electrode voltage clamp, statements across the diheteromeric NMDA receptors; format: cell-based, rat; settings: for decrease in potency: relative to parent analogues (1/14)
[3] = test system: cultured primary hippocampal neurons; assay: Neuroprotection against NMDA-induced excitotoxicity, LDH release; format: cell-based; settings: 100 µM NMDA plus 30 µM glycine 1 h; LDH 20–24 h after; 30 µM 4, 10 µM (+)MK-801
[4] = Stability of enantiomers separated by chiral semi-preparative HPLC; format: physicochemical; settings: after chiral semi-preparative HPLC
[5] = molecular target: GluN1/GluN2C NMDA receptor (Rattus norvegicus, UniProt P35439+Q00961); format: cell-based; settings: 3 µM compound, absence of Mg2+, n = 5
GluN1/GluN2C NMDA receptor, sequence (Q00961 20-1237, other chains not shown): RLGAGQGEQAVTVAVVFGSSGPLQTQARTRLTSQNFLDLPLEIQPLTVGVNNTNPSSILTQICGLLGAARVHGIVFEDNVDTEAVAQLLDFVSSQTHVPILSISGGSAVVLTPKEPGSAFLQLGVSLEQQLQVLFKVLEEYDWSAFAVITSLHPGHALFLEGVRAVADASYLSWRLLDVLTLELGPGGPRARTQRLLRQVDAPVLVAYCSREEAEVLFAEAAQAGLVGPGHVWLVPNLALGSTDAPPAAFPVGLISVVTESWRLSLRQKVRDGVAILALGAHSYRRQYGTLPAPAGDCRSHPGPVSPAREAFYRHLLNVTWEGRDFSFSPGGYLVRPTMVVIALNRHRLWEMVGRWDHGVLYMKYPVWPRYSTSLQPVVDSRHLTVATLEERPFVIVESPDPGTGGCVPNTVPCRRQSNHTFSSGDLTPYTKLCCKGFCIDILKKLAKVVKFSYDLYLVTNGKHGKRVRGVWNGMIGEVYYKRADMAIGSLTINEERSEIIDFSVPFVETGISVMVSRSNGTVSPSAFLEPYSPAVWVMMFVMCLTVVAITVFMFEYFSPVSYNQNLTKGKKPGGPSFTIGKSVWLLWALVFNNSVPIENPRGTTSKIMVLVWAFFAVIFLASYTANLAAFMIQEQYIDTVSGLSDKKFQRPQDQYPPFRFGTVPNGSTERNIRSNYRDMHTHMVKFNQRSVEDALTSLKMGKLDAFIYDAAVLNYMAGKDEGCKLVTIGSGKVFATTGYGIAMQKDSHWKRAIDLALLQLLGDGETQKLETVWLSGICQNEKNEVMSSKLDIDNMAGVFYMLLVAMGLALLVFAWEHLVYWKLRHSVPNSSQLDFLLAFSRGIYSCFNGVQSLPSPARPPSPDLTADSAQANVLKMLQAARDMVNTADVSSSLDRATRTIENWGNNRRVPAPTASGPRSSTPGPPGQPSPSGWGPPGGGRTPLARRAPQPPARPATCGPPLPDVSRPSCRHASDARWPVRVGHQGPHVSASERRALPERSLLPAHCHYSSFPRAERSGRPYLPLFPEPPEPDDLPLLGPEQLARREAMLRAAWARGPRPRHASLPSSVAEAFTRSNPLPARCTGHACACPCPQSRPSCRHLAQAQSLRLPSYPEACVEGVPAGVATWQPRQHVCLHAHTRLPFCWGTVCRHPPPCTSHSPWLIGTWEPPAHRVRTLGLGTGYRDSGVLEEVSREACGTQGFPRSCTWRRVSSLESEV

GluN1/GluN2D NMDA receptor, sequence (Q62645 28-1323, other chains not shown): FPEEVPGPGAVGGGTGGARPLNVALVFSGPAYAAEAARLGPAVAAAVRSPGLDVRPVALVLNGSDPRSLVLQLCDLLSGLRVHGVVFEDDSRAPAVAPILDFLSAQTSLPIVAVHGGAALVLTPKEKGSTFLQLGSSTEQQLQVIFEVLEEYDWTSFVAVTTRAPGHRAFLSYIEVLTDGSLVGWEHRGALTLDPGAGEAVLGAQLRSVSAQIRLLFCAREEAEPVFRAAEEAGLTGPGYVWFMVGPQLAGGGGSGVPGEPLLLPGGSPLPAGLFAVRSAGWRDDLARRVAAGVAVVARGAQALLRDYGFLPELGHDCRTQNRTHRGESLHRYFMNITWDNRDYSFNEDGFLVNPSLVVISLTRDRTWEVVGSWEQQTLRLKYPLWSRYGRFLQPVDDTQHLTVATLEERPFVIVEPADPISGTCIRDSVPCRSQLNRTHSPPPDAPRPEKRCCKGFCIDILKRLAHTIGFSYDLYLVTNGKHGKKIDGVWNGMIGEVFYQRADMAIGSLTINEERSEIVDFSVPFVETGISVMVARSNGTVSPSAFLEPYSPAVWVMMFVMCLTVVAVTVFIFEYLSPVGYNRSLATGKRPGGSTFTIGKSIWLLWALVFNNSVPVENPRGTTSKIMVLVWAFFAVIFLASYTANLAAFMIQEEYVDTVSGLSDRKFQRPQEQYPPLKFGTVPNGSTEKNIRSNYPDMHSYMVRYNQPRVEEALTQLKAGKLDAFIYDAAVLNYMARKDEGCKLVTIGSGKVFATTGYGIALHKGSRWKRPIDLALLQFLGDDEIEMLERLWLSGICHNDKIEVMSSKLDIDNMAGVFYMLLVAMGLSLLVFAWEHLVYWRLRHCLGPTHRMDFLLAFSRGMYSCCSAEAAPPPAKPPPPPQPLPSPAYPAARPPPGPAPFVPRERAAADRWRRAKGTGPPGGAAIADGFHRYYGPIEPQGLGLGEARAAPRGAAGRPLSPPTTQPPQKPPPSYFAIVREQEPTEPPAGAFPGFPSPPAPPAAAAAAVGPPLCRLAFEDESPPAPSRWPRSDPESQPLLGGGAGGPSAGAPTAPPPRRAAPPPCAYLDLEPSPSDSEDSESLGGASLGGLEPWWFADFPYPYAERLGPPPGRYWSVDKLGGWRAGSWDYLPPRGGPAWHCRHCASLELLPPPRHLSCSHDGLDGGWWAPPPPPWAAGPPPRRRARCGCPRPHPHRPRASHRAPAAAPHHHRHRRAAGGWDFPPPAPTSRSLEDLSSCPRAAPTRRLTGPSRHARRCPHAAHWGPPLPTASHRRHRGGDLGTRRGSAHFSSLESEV

Which “increase in potency at GluN2D-containing receptors” value [1] does the source give for `COC(=O)c1c(NC(=O)CC2SC(N)=NC2=O)sc2c1CCCC2` (centres unmarked) [Compound 20] here?
Its value is 2 fold.

With `CCOC(=O)c1c(NC(=O)CC2SC(=O)NC2=O)sc2c1CCC2` (centres unmarked) [Compound 24] as the molecule, how does the “activity at NMDA receptor subtypes” value [2] read?
Its value is “abolished activity”.

For `CCOC(=O)c1c(NC(=O)CC2SC(=N)NC2=O)sc2c1CCCC2` (centres unmarked) [Compound 5], which “increase in potency at GluN2D-containing receptors” value [1] is on record?
The value was 3 fold.

Which “activity at NMDA receptor subtypes” value [2] does the source give for `N=C1NC(=O)C(CC(=O)Nc2sc3c(c2C(=O)O)CCCC3)S1` (centres unmarked) [Compound 13] here?
Its value is “loss of activity”.

With `CCOC(=O)c1c(NC(=O)CC2SC(=O)NC2=O)sc2c1CCCC2` (centres unmarked) [Compound 25] as the molecule, how does the “activity at NMDA receptor subtypes” value [2] read?
The value was “abolished activity”.

With `COC(=O)c1ccsc1NC(=O)CC1SC(=N)NC1=O` (centres unmarked) [Compound 19] as the molecule, how does the decrease in potency [2] read?
The decrease in potency was “over 10 fold”.

Which “NMDA/glycine-induced cell death (supernatant LDH)” value [3] does the source give for `C[C@]12N[C@H](Cc3ccccc31)c1ccccc12` [(+)MK-801, reference compound] here?
The value was “able to attenuate”.

Which decrease in potency [2] does the source give for `CCOC(=O)c1cc(C)sc1NC(=O)CC1SC(=N)NC1=O` (centres unmarked) [Compound 15] here?
The decrease in potency was > 4 fold.

With `CCOC(=O)c1c(NC(=O)CC2SC(=N)NC2=O)sc2c1CCC(F)(F)C2` (centres unmarked) [Compound 11] as the molecule, how does the “racemization of separated enantiomers” value [4] read?
The value was “prone to rapid racemization”.

For `COC(=O)c1c(NC(=O)CC2SC(N)=NC2=O)sc2c1CCC(C)C2` (centres unmarked) [Compound 22], which “IC50 values for all NMDA receptor subunits” value [2] is on record?
Its value is “submicromolar”.

For `N#Cc1c(NC(=O)CC2SC(=N)NC2=O)sc2c1CCCC2` (centres unmarked) [Compound 21], which “maximal inhibition” value [2] is on record?
Its value is 60%.

Which “activity at NMDA receptor subtypes” value [2] does the source give for `CCOC(=O)c1c(NC(=O)CC2NC(=O)NC2=O)sc2c1CCCC2` (centres unmarked) [Compound 27] here?
Its value is “abrogated activity”.

For `CCOC(=O)c1c(NC(=O)CC2SC(N)=NC2=O)sc2c1CCC(C)C2` (centres unmarked) [Compound 4], which “NMDA/glycine-induced cell death (supernatant LDH)” value [3] is on record?
The value was “reduced significantly”.

And the “improved activity compared to unsubstituted counterpart 5” value [2]?
The value was ~ 2 fold.

What about the “mechanism: inhibition with 10-fold increase in glutamate (1000 µM) or glycine (300 µM)” value ([2]; 5 µM compound) of the same molecule?
Its value is “could not be surmounted”.

What about the “inhibition at saturating concentrations against all GluN2 subunits” value ([2]; separate experiments, n = 4–6) of the same molecule?
The value was 73–81%.

And the “degree of inhibition at membrane potentials between ‒60 and +60 mV” value [5]?
Its value is “the same at all voltages tested”.
